The source of these data is US7728131B2, “Amide derivative and medicine” (Nippon Shinyaku Co., Ltd., priority 2003, dated 2010).

SMILES strings stand for the structures. Where a name gives a salt, the structure may show the parent alone. Read-outs that look alike come from different tables or passages of the source. A value given as a limit tells only on which side of the number the result lay.

In one series the test system is U937 cells. The experiment in a line: Cell growth inhibitory effect, U937 cells (Cell counting Kit-8, 72 hours). Type of series: cell-based. To be noted: Homo sapiens, U-937, BCR-ABL negative U937 cells, WST-8 absorbance. Here is the method:
The plate was incubated in a CO2 incubator overnight. […] The plate was incubated in a CO2 incubator. After 72 hours, 20 μl
Background: Formazan colour is commonly taken as a measure of viable cells.

In the next series the test system is K562 cells. Kind of series: Cell growth inhibitory effect, K562 cells (Cell counting Kit-8, 72 hours).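 For all read-outs here: Read-out is formazan absorbance at 450 nm from WST-8 reduction after a 3 h color reaction, with K562 and U937 cells grown in 96-well plates.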 To be noted: for IC50: Homo sapiens, K562, 72 h, read-out: K562 cells (IC50 value: μM); for Ratio (U937 cells/K562 cells): IC50 U937 cells / IC50 K562 cells.
The mark [1] stands for this setting: read-out: U937 cells (IC50 value: μM).
[2] abbreviates: continuation of Table 3, read-out: U937 cells (IC50 value: nμM).

Protocol for K562 cells: of Cell counting Kit-8 (5 mmol/l WST-8, 0.2 mmol/1 1-Methoxy PMS, 150 mmol/l NaCl) (manufactured by Dojindo) was added to each well. After reaction for color development in a CO2 incubator for 3 hours, an absorbance of formazan, generated by reduction of WST-8 was determined at 450 nm using Multi-level counter ARVOsx (manufactured by Wallac).
K562 cells and U937 cells (purchased from American Type Culture Collection) were cultured in a RPMI-1640 medium (manufactured by Sigma) containing 10% (v/v) fetal calf serum (FCS) (manufactures by Sigma) (RPMI-1640/FCS). K562 cells and U937 cells were seeded at a density of 5000 cells/100 μl/well and 4000 cells/100 μl/well in each of 96-hole-plate (manufactured by costar), respectively. The plate was incubated in a CO2 incubator overnight. […] The resulting solution was diluted 500 times in a RPMI-1640/FCS medium and then 100 μl of the diluent was added in a well. The plate was incubated in a CO2 incubator. After 72 hours, 20 μl

Regarding `Cc1ccc(NC(=O)c2ccc(CN3CCN(C)CC3)c(C(F)(F)F)c2)cc1Nc1cc(-c2cccnc2)ccn1` (as salt: methanesulfonate) [Example 29, 4-(4-methylpiperazin-1-ylmethyl)-3-trifluoromethyl-N-{4-methyl-3-[4-(3-pyridyl)pyridin-2-ylamino]phenyl}benzamide methanesulfonate], the melting point (as a rule, the temperature of the solid-liquid transition) was in the range of 189 to 191 °C.
For `CN[C@H]1CCN(Cc2ccc(C(=O)Nc3ccc(C)c(Nc4nccc(-c5cncnc5)n4)c3)cc2C(F)(F)F)C1` (as salt: salt) [Example 68, (−)-4-[(S)-3-(methylamino)pyrrolidin-1-ylmethyl]-3-trifluoromethyl-N-{4-methyl-3-[4-(5-pyrimidinyl)pyrimidin-2-ylamino]phenyl}benzamide], the melting point is 142 to 149 °C (dec.).
On the same count and under the same terms, the result for `Cc1ccc(NC(=O)c2ccc(CN3CCNCC3)c(C(F)(F)F)c2)cc1Nc1nccc(-c2cncnc2)n1` (as salt: trifluoroacetate) [Example 43, 4-(1-piperazinylmethyl)-3-trifluoromethyl-N-{4-methyl-3-[4-(5-pyrimidinyl)pyrimidin-2-ylamino]phenyl}benzamide trifluoroacetate] reads 199 to 202 °C (dec.).
Turning to `Cc1ccc(NC(=O)c2ccc(CN3CCN(C)CC3)c(C(F)F)c2)cc1Nc1nccc(-c2cncnc2)n1.Cl` [Example 2, 3-difluoromethyl-4-(4-methylpiperazin-1-ylmethyl)-N-{4-methyl-3-[4-(5-pyrimidinyl)pyrimidin-2-ylamino]phenyl}benzamide hydrochloride], the melting point is 264 °C (dec.). Further, the IC50 – broadly, the concentration needed to halve the response being measured – with U937 cells (setting [1]) was determined as 15 µM. Also, in the series with K562 cells, the IC50 was found to be 0.0028 µM and the “Ratio (U937 cells/K562 cells)” value came out at 5357.
In the case of `CCc1cc(C(=O)Nc2ccc(C)c(Nc3nccc(-c4cncnc4)n3)c2)ccc1CN1CCN(C)CC1.Cl` [Example 4, 3-ethyl-4-(4-methylpiperazin-1-ylmethyl)-N-{4-methyl-3-[4-(5-pyrimidinyl)pyrimidin-2-ylamino]phenyl}benzamide hydrochloride], the melting point is 253 to 255 °C (dec.). The IC50 with U937 cells (setting [1]) came to 28 µM. In the series with K562 cells, the IC50 is 0.002 µM and the “Ratio (U937 cells/K562 cells)” value is 14000.
The matching figures for `Cc1ccc(NC(=O)c2ccc(C=C3CCN(C)CC3)c(C(F)(F)F)c2)cc1Nc1nccc(-c2cncnc2)n1.Cl` [Example 6, 4-(1-methylpiperidin-4-ylidenemethyl)-3-trifluoromethyl-N-{4-methyl-3-[4-(5-pyrimidinyl)pyrimidin-2-ylamino]phenyl}benzamide hydrochloride]: 202 to 206 °C (dec.), 4.3 µM, 0.0012 µM and 3583.
As for `Cc1ccc(NC(=O)c2ccc(CC3CCN(C)CC3)c(C(F)(F)F)c2)cc1Nc1nccc(-c2cncnc2)n1.Cl` [Example 8, 4-(1-methylpiperidin-4-ylmethyl)-3-trifluoromethyl-N-{4-methyl-3-[4-(5-pyrimidinyl)pyrimidin-2-ylamino]phenyl}benzamide hydrochloride], the melting point is 227 to 231 °C (dec.). In addition, in the series with U937 cells (setting [1]), the 50% inhibitory concentration (IC50) was 4.6 µM. Besides, in the series on K562 cells, the IC50 worked out at 0.00098 µM and the “Ratio (U937 cells/K562 cells)” value was 4694.
As to `Cc1ccc(NC(=O)c2ccc(OC3CCN(C)CC3)c(C(F)(F)F)c2)cc1Nc1nccc(-c2cncnc2)n1.Cl` [Example 10, 4-(1-methylpiperidin-4-yloxy)-3-trifluoromethyl-N-{4-methyl-3-[4-(5-pyrimidinyl)pyrimidin-2-ylamino]phenyl}benzamide hydrochloride], the melting point was no less than 275 °C. In addition, the IC50 in the series on U937 cells (setting [1]) is 8.1 µM. For the same molecule, in the series on K562 cells, the IC50 was determined as 0.0021 µM and the “Ratio (U937 cells/K562 cells)” value was found to be 3857.
`Cc1ccc(NC(=O)c2cc(Cl)c(CN3CC[C@H](N(C)C)C3)c(Cl)c2)cc1Nc1nccc(-c2cncnc2)n1.Cl` [Example 12, (−)-3,5-dichloro-4-[(S)-3-(dimethylamino)pyrrolidin-1-ylmethyl]-N-{4-methyl-3-[4-(5-pyrimidinyl)pyrimidin-2-ylamino]phenyl}benzamide hydrochloride]: the melting point was 161 to 170 °C (dec.). Also, the IC50 with U937 cells (setting [1]) was 4.7 µM. Moreover, in the series on K562 cells, the IC50 is 0.0056 µM and the “Ratio (U937 cells/K562 cells)” value came to 839.
Consider `Cc1ccc(NC(=O)c2ccc(CC3CCN(C)CC3)c(CF)c2)cc1Nc1nccc(-c2cncnc2)n1` [Example 21, 3-fluoromethyl-4-(1-methylpiperidin-4-ylmethyl)-N-{4-methyl-3-[4-(5-pyrimidinyl)pyrimidin-2-ylamino]phenyl}benzamide], for which the IC50 in the series on U937 cells (setting [2]) was 42 µM. In the series on K562 cells, the IC50 was 0.0063 µM and the “Ratio (U937 cells/K562 cells)” value is 6667.
For `Cc1ccc(NC(=O)c2ccc(CN3CCN(C)CC3)c(C(F)(F)F)c2)cc1Nc1cc(-c2cccnc2)ccn1` [Example 28, 4-(4-methylpiperazin-1-ylmethyl)-3-trifluoromethyl-N-{4-methyl-3-[4-(3-pyridyl)pyridin-2-ylamino]phenyl}benzamide], the melting point was 241 to 242 °C (dec.).
For the molecule `Cc1ccc(NC(=O)c2ccc(CN3CCN(C)CC3)c(C(F)(F)F)c2)cc1Nc1cc(-c2cccnc2)ccn1` [Example 29, 4-(4-methylpiperazin-1-ylmethyl)-3-trifluoromethyl-N-{4-methyl-3-[4-(3-pyridyl)pyridin-2-ylamino]phenyl}benzamide methanesulfonate], the IC50 with U937 cells (setting [2]) came out at 1.4 µM; with K562 cells, 0.0017 µM. For the same molecule, the “Ratio (U937 cells/K562 cells)” value with K562 cells was 824.
Regarding `Cc1ccc(NC(=O)c2ccc(CN3CC[C@@H](N(C)C)C3)c(C(F)(F)F)c2)cc1Nc1nccc(-c2cncnc2)n1.Cl` [Example 38, (+)-4-[(R)-3-(dimethylamino)pyrrolidin-1-ylmethyl]-3-trifluoromethyl-N-{4-methyl-3-[4-(5-pyrimidinyl)pyrimidin-2-ylamino]phenyl}benzamide hydrochloride], the IC50 with U937 cells (setting [2]) was determined as 8.9 µM. Also, in the series with K562 cells, the IC50 stood at 0.0019 µM and the “Ratio (U937 cells/K562 cells)” value is reported as 4684.
For `Cc1ccc(NC(=O)c2ccc(CN3CCNCC3)c(C(F)(F)F)c2)cc1Nc1nccc(-c2cncnc2)n1` [Example 43, 4-(1-piperazinylmethyl)-3-trifluoromethyl-N-{4-methyl-3-[4-(5-pyrimidinyl)pyrimidin-2-ylamino]phenyl}benzamide trifluoroacetate], the IC50 in the series with U937 cells (setting [2]) was found to be 3.9 µM. For the same molecule, in the series on K562 cells, the IC50 amounted to 0.0011 µM and the “Ratio (U937 cells/K562 cells)” value was 3545.
Regarding `Cc1ccc(NC(=O)c2ccc(CN3CC[C@H](N)C3=O)c(C(F)(F)F)c2)cc1Nc1nccc(-c2cncnc2)n1` [Example 46, (−)-4-((S)-3-amino-2-oxopyrrolidin-1-ylmethyl)-3-trifluoromethyl-N-{4-methyl-3-[4-(5-pyrimidinyl)pyrimidin-2-ylamino]phenyl}benzamide], the IC50 with U937 cells (setting [2]) came out at 29 µM. Besides, in the series with K562 cells, the IC50 came to 0.019 µM and the “Ratio (U937 cells/K562 cells)” value is reported as 1526.
For `Cc1ccc(NC(=O)c2ccc(CN3CC[C@H](N(C)C)C3)c(C(F)(F)F)c2)cc1Nc1nccc(-c2cncnc2)n1.Cl` [Example 48, (−)-4-[(S)-3-(dimethylamino)pyrrolidin-1-ylmethyl]-3-trifluoromethyl-N-{4-methyl-3-[4-(5-pyrimidinyl)pyrimidin-2-ylamino]phenyl}benzamide hydrochloride], in the series on U937 cells (setting [2]), the IC50 is 12 µM. Also, in the series with K562 cells, the IC50 turned out to be 0.004 µM and the “Ratio (U937 cells/K562 cells)” value came to 3000.
`Cc1ccc(NC(=O)c2ccc(CN3CCC[C@H]3CN3CCCC3)c(C(F)(F)F)c2)cc1Nc1nccc(-c2cncnc2)n1.Cl` [Example 52, (−)-4-[(S)-2-(1-pyrrolidinylmethyl)pyrrolidin-1-ylmethyl]-3-trifluoromethyl-N-{4-methyl-3-[4-(5-pyrimidinyl)pyrimidin-2-ylamino]phenyl}benzamide hydrochloride]: the IC50 in the series with U937 cells (setting [2]) worked out at 3.9 µM. In addition, in the series with K562 cells, the IC50 was 0.004 µM and the “Ratio (U937 cells/K562 cells)” value is given as 975.
Consider `Cc1ccc(NC(=O)c2ccc(CN3CCN[C@@H](C)C3)c(C(F)(F)F)c2)cc1Nc1nccc(-c2cncnc2)n1.Cl` [Example 55, 4-((S)-3-methylpiperazin-1-ylmethyl)-3-trifluoromethyl-N-{4-methyl-3-[4-(5-pyrimidinyl)pyrimidin-2-ylamino]phenyl}benzamide], for which the IC50 in the series on U937 cells (setting [2]) amounted to 10 µM; with K562 cells, 0.0022 µM. The “Ratio (U937 cells/K562 cells)” value in the series with K562 cells is 4545.
As for `CO[C@H]1CN(Cc2ccc(C(=O)Nc3ccc(C)c(Nc4nccc(-c5cncnc5)n4)c3)cc2C(F)(F)F)C[C@@H]1N(C)C.Cl` [Example 59, 4-[(3S,4S)-3-(dimethylamino)-4-methoxypyrrolidin-1-ylmethyl]-3-trifluoromethyl-N-{4-methyl-3-[4-(5-pyrimidinyl)pyrimidin-2-ylamino]phenyl}benzamide hydrochloride], in the series on U937 cells (setting [2]), the IC50 worked out at 13 µM. Moreover, in the series with K562 cells, the IC50 amounted to 0.0081 µM and the “Ratio (U937 cells/K562 cells)” value came out at 1605.
The matching figures for `CN[C@H]1CCN(Cc2ccc(C(=O)Nc3ccc(C)c(Nc4nccc(-c5cncnc5)n4)c3)cc2C(F)(F)F)C1` [Example 68, (−)-4-[(S)-3-(methylamino)pyrrolidin-1-ylmethyl]-3-trifluoromethyl-N-{4-methyl-3-[4-(5-pyrimidinyl)pyrimidin-2-ylamino]phenyl}benzamide]: 5.8 µM, 0.0024 µM and 2417.
